Measurements as given in patent US20080176936A1, “Classes of Compounds that Interact with Integrins” (priority 2005, published 2008).

Assays:
αllbβ3 integrin = target: T1, αllbβ3 integrin (Homo sapiens, UniProt P05106+P08514); experiment: ELISA: inhibition of binding of αllbβ3 integrin membrane preparation to coated extracellular matrix protein; conditions: human platelet membrane preparation
T1 construct: Human platelet membrane preparations were used as a source of αllbβ3 integrin; from tissue; host or cells: human platelets (membrane preparation)
Protocol: (§1) An ELISA assay based on the published method of Bethert et al., 2000, J Biol Chem 275, 33308-23, was employed.
(§2) Briefly, appropriate microtitre plates were coated with either Fibrinogen or Vitronectin (10 μg/well). These extracellular matrix proteins contain the RGD amino acid sequence that is recognized by αllbβ3 integrin. Human platelet membrane preparations were used as a source of αllbβ3 integrin and the cell line WM-115 was used as a source of αVβ3 integrin. Inhibition of the binding of αllbβ3 integrin containing membrane preparations to the extracellular matrix protein was determined by pre-incubating the platelet membrane preparation with test or control compounds. The binding of the αllbβ3 integrin containing membrane was the quantitated by using a rabbit anti-integrinβ3 antibody, a horse radish peroxidase coupled second antibody and a standard colorimetric detection system.

αVβ3 integrin = target: T2, αVβ3 integrin (Homo sapiens, UniProt P05106+P06756); experiment: ELISA: inhibition of binding of αVβ3 integrin (source WM-115 cell line) to coated extracellular matrix protein; conditions: WM-115 cell line as integrin source
T2 construct: the cell line WM-115 was used as a source of αVβ3 integrin; endogenous in cells; host or cells: WM-115 cell line
Protocol: as §1, §2

T2 sequence (P06756 31-889 limits assumed): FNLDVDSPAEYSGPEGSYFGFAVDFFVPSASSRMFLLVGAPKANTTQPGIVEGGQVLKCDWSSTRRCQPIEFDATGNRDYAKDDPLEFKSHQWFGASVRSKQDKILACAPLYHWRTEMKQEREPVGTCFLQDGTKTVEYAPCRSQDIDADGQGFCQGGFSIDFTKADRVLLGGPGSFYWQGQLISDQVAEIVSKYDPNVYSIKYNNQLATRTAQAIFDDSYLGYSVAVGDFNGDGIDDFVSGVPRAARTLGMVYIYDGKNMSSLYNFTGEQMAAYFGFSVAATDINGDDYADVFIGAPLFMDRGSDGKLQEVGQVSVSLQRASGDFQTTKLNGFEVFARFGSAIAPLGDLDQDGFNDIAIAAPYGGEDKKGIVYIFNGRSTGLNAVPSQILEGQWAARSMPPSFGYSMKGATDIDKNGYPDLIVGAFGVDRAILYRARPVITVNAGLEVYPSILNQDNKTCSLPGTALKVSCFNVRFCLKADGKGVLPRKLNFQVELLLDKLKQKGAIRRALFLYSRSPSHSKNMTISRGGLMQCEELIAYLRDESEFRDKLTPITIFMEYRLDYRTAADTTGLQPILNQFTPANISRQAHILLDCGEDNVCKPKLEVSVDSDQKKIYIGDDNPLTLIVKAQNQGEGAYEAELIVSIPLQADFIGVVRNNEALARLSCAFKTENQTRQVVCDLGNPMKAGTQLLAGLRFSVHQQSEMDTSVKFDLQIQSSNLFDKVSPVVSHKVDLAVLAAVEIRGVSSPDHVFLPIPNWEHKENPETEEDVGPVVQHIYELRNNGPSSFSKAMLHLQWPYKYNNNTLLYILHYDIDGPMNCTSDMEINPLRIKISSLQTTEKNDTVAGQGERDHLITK
T2 sequence (P06756 891-1048 partner limits assumed): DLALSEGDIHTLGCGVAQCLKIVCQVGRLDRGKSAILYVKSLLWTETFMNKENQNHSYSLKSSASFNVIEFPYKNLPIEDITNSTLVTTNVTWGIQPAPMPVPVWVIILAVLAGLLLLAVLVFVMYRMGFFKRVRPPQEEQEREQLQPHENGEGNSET
T2 sequence (P05106 27-788): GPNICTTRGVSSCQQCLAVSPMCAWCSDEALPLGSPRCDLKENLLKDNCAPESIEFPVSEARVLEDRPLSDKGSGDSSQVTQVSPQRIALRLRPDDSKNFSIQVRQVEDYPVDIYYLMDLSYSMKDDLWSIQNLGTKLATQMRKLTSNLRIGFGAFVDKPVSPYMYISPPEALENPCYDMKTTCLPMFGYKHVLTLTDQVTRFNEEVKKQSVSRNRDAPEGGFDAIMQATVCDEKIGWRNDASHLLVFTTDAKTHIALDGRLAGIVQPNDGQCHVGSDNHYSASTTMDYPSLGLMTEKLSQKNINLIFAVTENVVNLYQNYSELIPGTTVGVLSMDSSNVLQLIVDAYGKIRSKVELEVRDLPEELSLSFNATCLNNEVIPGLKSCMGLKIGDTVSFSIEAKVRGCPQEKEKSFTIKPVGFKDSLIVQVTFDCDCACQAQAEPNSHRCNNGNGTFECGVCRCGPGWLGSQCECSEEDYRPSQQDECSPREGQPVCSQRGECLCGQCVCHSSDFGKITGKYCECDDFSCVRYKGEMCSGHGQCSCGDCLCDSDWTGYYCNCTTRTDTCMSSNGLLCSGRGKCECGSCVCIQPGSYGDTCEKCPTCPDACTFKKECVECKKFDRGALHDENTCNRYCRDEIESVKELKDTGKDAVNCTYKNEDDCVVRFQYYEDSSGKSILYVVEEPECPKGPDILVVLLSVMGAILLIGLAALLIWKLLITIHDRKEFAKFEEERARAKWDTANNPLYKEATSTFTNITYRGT
T1 sequence (P08514 32-887 limits assumed): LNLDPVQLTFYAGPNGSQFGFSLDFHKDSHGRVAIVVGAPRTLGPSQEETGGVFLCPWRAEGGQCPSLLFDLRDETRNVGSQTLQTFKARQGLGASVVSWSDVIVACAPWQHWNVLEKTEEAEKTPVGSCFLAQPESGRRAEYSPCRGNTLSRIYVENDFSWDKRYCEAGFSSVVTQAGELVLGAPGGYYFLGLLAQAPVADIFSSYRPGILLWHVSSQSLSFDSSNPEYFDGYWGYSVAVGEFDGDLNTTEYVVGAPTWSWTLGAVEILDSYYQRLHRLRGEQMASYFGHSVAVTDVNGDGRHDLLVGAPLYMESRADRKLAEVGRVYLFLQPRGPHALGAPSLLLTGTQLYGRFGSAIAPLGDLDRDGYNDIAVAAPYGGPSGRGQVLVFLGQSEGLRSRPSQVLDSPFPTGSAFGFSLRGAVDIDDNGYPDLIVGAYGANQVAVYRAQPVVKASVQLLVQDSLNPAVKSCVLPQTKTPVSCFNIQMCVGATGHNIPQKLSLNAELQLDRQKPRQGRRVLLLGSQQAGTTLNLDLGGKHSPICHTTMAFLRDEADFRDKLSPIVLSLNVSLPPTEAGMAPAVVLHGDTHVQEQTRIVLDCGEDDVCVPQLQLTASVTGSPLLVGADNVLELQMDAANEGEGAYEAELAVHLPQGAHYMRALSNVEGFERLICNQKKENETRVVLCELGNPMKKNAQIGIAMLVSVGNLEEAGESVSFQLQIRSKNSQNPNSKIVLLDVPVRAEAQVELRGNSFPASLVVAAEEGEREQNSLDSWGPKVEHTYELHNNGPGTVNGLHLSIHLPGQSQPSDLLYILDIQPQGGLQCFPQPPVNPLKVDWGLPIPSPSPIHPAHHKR
T1 sequence (P08514 891-1039 partner limits assumed): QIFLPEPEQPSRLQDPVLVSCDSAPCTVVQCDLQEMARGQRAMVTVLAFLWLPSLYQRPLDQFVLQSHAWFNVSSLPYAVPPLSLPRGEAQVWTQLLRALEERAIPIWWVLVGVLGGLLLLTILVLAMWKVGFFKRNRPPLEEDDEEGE
T1 sequence (P05106 27-788): as the sequence (P05106 27-788) above

SMILES | INHIBITION @ 250 uM RECEPTOR allBb3 SUBSTRATE FIBRINOGEN (αllbβ3 integrin) | INHIBITION 250 uM RECEPTOR allBb3 SUBSTRATE VITRONECTIN (αllbβ3 integrin) | INHIBITION 250 uM RECEPTOR aVb3 SUBSTRATE FIBRINOGEN (αVβ3 integrin)
CCOC1OC(COCc2ccc(Br)cc2)C(O)C(OCc2cccc(N)c2)C1NC(=O)c1ccc(C(=O)O)cc1 (single isomer, unassigned) [Compound 72] | + (36% to 60% inhibition at 250 micromolar) | +++ (81% to 100% inhibition at 250 micromolar) | +++ (81% to 100% inhibition at 250 micromolar)
CCOC1O[C@H](COCc2ccc(C(=O)O)cc2)[C@@H](O)[C@H](OCc2ccc(Br)cc2)[C@H]1NC(=O)c1cccc(N)c1 (single isomer, unassigned) [Compound 40] | +++ (81% to 100% inhibition at 250 micromolar) | +++ (81% to 100% inhibition at 250 micromolar) | +++ (81% to 100% inhibition at 250 micromolar)
COC1OC(COCc2cccc(N)c2)C(O)C(OCc2ccc(C(=O)O)cc2)C1NC(=O)c1ccccc1 (single isomer, unassigned) [Compound 19] | ++ (61% to 80% inhibition at 250 micromolar) | +++ (81% to 100% inhibition at 250 micromolar) | +++ (81% to 100% inhibition at 250 micromolar)
COC1OC(COCC(=O)O)C(O)C(OCc2ccccc2)C1NC(=O)c1ccc(CNC(=N)N)cc1 (single isomer, unassigned) [Compound 129] | − (0% to 35% inhibition at 250 micromolar) | +++ (81% to 100% inhibition at 250 micromolar) | − (0% to 35% inhibition at 250 micromolar)
COC1OC(COCc2ccc(Br)cc2)C(O)C(OCc2ccc(C(=O)O)cc2)C1NC(=O)CCNC(=N)N (single isomer, unassigned) [Compound 16] | + (36% to 60% inhibition at 250 micromolar) | +++ (81% to 100% inhibition at 250 micromolar) | ++ (61% to 80% inhibition at 250 micromolar)
CCOC1O[C@H](COCc2cccc(N)c2)[C@@H](O)[C@H](OCc2ccccc2)[C@H]1NC(=O)c1ccc(C(=O)O)cc1 (single isomer, unassigned) [Compound 37] | + (36% to 60% inhibition at 250 micromolar) | +++ (81% to 100% inhibition at 250 micromolar) | +++ (81% to 100% inhibition at 250 micromolar)
CCOC1OC(COCC(=O)O)C(O)C(OCc2ccccc2)C1NC(=O)CCNC(=N)N (single isomer, unassigned) [Compound 122] | ++ (61% to 80% inhibition at 250 micromolar) | ++ (61% to 80% inhibition at 250 micromolar) | − (0% to 35% inhibition at 250 micromolar)
CCOC1O[C@H](COCc2ccc(C(=O)O)cc2)[C@@H](O)[C@H](OCc2ccc(Br)cc2)[C@H]1NC(=O)c1cccc(N)c1 (single isomer, unassigned) [Compound 41] | + (36% to 60% inhibition at 250 micromolar) | ++ (61% to 80% inhibition at 250 micromolar) | + (36% to 60% inhibition at 250 micromolar)
COC1OC(COCC(=O)O)C(O)C(OCc2cccc(N)c2)C1NC(=O)c1ccccc1 (single isomer, unassigned) [Compound 27] | ++ (61% to 80% inhibition at 250 micromolar) | +++ (81% to 100% inhibition at 250 micromolar) | +++ (81% to 100% inhibition at 250 micromolar)
Nc1cccc(COC2C(O)C(COCc3ccc(Br)cc3)OC(O)C2NC(=O)c2ccc(C(=O)O)cc2)c1 (single isomer, unassigned) [Compound 75] | + (36% to 60% inhibition at 250 micromolar) | +++ (81% to 100% inhibition at 250 micromolar) | − (0% to 35% inhibition at 250 micromolar)
Nc1cccc(C(=O)N[C@H]2C(O)O[C@H](COCC(=O)O)[C@@H](O)[C@@H]2OCc2ccccc2)c1 (single isomer, unassigned) [Compound 34] | + (36% to 60% inhibition at 250 micromolar) | +++ (81% to 100% inhibition at 250 micromolar) | +++ (81% to 100% inhibition at 250 micromolar)
CCC(=O)NC1C(OCc2ccccc2)OC(COCc2ccc(C(=O)O)cc2)C(O)C1OCc1cccc(N)c1 (single isomer, unassigned) [Compound 112] | − (0% to 35% inhibition at 250 micromolar) | +++ (81% to 100% inhibition at 250 micromolar) | +++ (81% to 100% inhibition at 250 micromolar)
COC1OC(COCC(=O)O)C(O)C(OCc2ccccc2)C1NC(=O)c1ccc(CN)cc1 (single isomer, unassigned) [Compound 127] | − (0% to 35% inhibition at 250 micromolar) | − (0% to 35% inhibition at 250 micromolar) | − (0% to 35% inhibition at 250 micromolar)
CCOCC1OC(OCc2ccccc2)C(NC(=O)CCNC(=N)N)C(OCC(=O)O)C1O (single isomer, unassigned) [Compound 93] | − (0% to 35% inhibition at 250 micromolar) | +++ (81% to 100% inhibition at 250 micromolar) | +++ (81% to 100% inhibition at 250 micromolar)
CCOC1O[C@H](COCc2cccc(N)c2)[C@@H](O)[C@H](OCC(=O)O)[C@H]1NC(=O)c1ccccc1 (single isomer, unassigned) [Compound 54] | − (0% to 35% inhibition at 250 micromolar) | ++ (61% to 80% inhibition at 250 micromolar) | + (36% to 60% inhibition at 250 micromolar)
CCOC1OC(COCc2ccc(Br)cc2)C(O)C(OCc2cccc(N)c2)C1NC(=O)c1ccc(C(=O)O)cc1 (single isomer, unassigned) [Compound 73] | ++ (61% to 80% inhibition at 250 micromolar) | +++ (81% to 100% inhibition at 250 micromolar) | − (0% to 35% inhibition at 250 micromolar)
COC1OC(COCC(=O)O)C(O)C(OCc2ccccc2)C1NC(=O)c1cc(N)cc(N)c1 (single isomer, unassigned) [Compound 131] | + (36% to 60% inhibition at 250 micromolar) | +++ (81% to 100% inhibition at 250 micromolar) | − (0% to 35% inhibition at 250 micromolar)
Nc1cccc(COC2C(NC(=O)c3ccc(Cl)cc3)COC(COCC(=O)O)C2O)c1 (stereo not drawn) [Compound 80] | ++ (61% to 80% inhibition at 250 micromolar) | +++ (81% to 100% inhibition at 250 micromolar) | + (36% to 60% inhibition at 250 micromolar)
